Source: PubChem BioAssay (NCI)
Several values for one entry are separate records, joined by “and”; a condition that tells them apart may be missing. Equal entries are not always repeated.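 How tested: cells in 96-well plates exposed to compound for 48 hours at five concentrations. GI50: concentration for 50% inhibition of growth. The concentration for full growth arrest is given as TGI.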

Assays:
Experiment in all cases: DTP human tumour cell line panel, 48 h
[1] = test system: 786-0 renal
[2] = test system: DU-145 prostate
[3] = test system: EKVX NSCLC
[4] = test system: HS 578T breast
[5] = test system: M14 melanoma
[6] = test system: MALME-3M melanoma
[7] = test system: MDA-MB-231 breast
[8] = test system: OVCAR-5 ovarian
[9] = test system: SNB-19 CNS
[10] = test system: HOP-92 NSCLC

| SMILES | TGI [1] | TGI [2] | TGI [3] | TGI [4] | TGI [5] | TGI [6] | TGI [7] | TGI [8] | TGI [9] | TGI [10] | GI50 [1] | GI50 [2] | GI50 [3] | GI50 [10] | GI50 [4] | GI50 [5] | GI50 [7] | GI50 [8] | GI50 [9] | GI50 [6] |
| --- | --- | --- | --- | --- | --- | --- | --- | --- | --- | --- | --- | --- | --- | --- | --- | --- | --- | --- | --- | --- |
| O=C(O)C1C2CCC(O2)C1C(=O)NCc1cccnc1 (configuration not stated) | > 100 µM | > 100 µM | > 100 µM | > 100 µM | > 100 µM | > 100 µM | > 100 µM | > 100 µM | > 100 µM | – | – | – | – | – | – | – | – | – | – | – |
| COC(=O)c1cc2c(nc1C)-c1ccccc1OS2(=O)=O | > 100 µM | – | > 100 µM | – | > 100 µM | > 100 µM | – | > 100 µM | > 100 µM | 83.2 µM | – | – | – | – | – | – | – | – | – | – |
| CCCCCCn1c2c(c3c(O)cccc31)C(=O)c1ccccc1-2 | 32.4 µM | 29.7 µM | 43.5 µM | 52.6 µM | 30.2 µM | – | 33.4 µM | 32.8 µM | > 100 µM | 33.2 µM | 17.1 µM | 15.7 µM | 20.1 µM | 17.6 µM | 24.2 µM | 15.7 µM | 16.3 µM | 18.6 µM | 39.4 µM | – |
| ClCc1ccc(-c2ccc(Cn3cnc4c(Cl)ncnc43)cc2)cc1 | 2.97 µM | 3.36 µM | 12.9 µM | > 100 µM | 11.8 µM | – | 3.73 µM | 6.01 µM | 8.1 µM | 25.2 µM | 1.62 µM | 1.49 µM | 2.98 µM | 2.02 µM | 3.06 µM | 2.69 µM | 1.77 µM | 2.31 µM | 2.59 µM | – |
| O=C(NC(Cc1ccccc1)C(=O)CCl)OCc1ccccc1 (configuration not stated) | 14.7 µM and 16.6 µM | 22.9 µM | – | 36 µM | 19.2 µM and 23 µM | 6.7 µM and 23.8 µM | 20.7 µM | 18.5 µM and 24.2 µM | 25.3 µM and 25.1 µM | 28.3 µM | – | 10.9 µM | – | – | 6.23 µM | 4.69 µM | 7.02 µM | 5.64 µM | – | 1.93 µM |
| C=CCCCC(O)c1ccc(C(O)c2cnc3ccccc3c2)o1 (configuration not stated) | > 100 µM | > 100 µM | > 100 µM | > 100 µM | 41.3 µM | – | 69.9 µM | 76.8 µM | > 100 µM | > 100 µM | 39.8 µM | 40 µM | 19.2 µM | 60.1 µM | 22.3 µM | 19.6 µM | 27 µM | 24.4 µM | 82.5 µM | – |
| CCOC(=O)Nc1cc(-c2ccc(C)c(NS(C)(=O)=O)c2)nn2c(C)nnc12 | > 100 µM | > 100 µM | – | 6.82 µM | > 100 µM | 41.5 µM | 20.4 µM | 31.3 µM | > 100 µM | – | 2.64 µM | 5.02 µM | – | – | 0.563 µM | 2.1 µM | 0.807 µM | 2.64 µM | 0.799 µM | 1.11 µM |
| COc1cc(/C=C2\CC3C4CCC5=CC(=O)CC[C@]5(C)C4CC[C@]3(C)C2=O)ccc1OCCN1CCCCC1 (some centres not stated) | 4.21 µM | 8.33 µM | 21.8 µM | 23 µM | 3.46 µM | – | 5.03 µM | 28.5 µM | 31 µM | 8.34 µM | 1.92 µM | 2.06 µM | 6.3 µM | 1.45 µM | 4.79 µM | 1.87 µM | 1.85 µM | 8.26 µM | 6.16 µM | – |
| COC(=O)Cc1nn2c(nc1=O)sc1ccc3ccccc3c12 | > 100 µM | – | > 100 µM | – | > 100 µM | > 100 µM | – | > 100 µM | > 100 µM | > 100 µM | – | – | – | – | – | – | – | – | – | – |
| C=C1CCC2(C(C)=O)COC1(C)O2 (configuration not stated) | > 100 µM | – | > 100 µM | – | > 100 µM | > 100 µM | – | – | > 100 µM | – | – | – | – | – | – | – | – | – | – | – |
| O=C1CCCCCCCCCCOC(=O)CCCCCCCCCCO1 | > 100 µM | – | > 100 µM | – | > 100 µM | > 100 µM | – | > 100 µM | > 100 µM | > 100 µM | – | – | – | – | – | – | – | – | – | – |
| CN(CCCCN)c1ccc2c(=O)[nH][nH]c(=O)c2c1 | > 100 µM | – | > 100 µM | – | > 100 µM | > 100 µM | – | > 100 µM | – | > 100 µM | – | – | – | – | – | – | – | – | – | – |
| CCN(CC)CCNC(=O)C(Cl)=C1C(Cl)=C(Cl)C(Cl)=C1Cl | 41.7 µM | 10.8 µM | > 100 µM | 25.3 µM | – | 47.3 µM | 31.3 µM | 27.8 µM | 29.6 µM | 8.62 µM | 5.07 µM | 2.78 µM | 6.44 µM | 2.37 µM | 3.01 µM | – | 3.83 µM | 4.82 µM | 10.9 µM | 11.9 µM |
| CCOC(=O)CP(=S)(S)c1ccccc1 (configuration not stated) | > 100 µM | – | > 100 µM | – | – | > 100 µM | – | > 100 µM | > 100 µM | > 100 µM | – | – | – | – | – | – | – | – | – | – |
| C1=CC(=NN=P(c2ccccc2)(c2ccccc2)c2ccccc2)C=C1 | > 100 µM | – | > 100 µM | – | > 100 µM | > 100 µM | – | > 100 µM | > 100 µM | > 100 µM | – | – | – | – | – | – | – | – | – | – |
| O=Cc1cn(S(=O)(=O)c2ccccc2)c2ccccc12 | > 100 µM | – | > 100 µM | – | > 100 µM | > 100 µM | – | > 100 µM | > 100 µM | – | – | – | – | – | – | – | – | – | – | – |
| CC(O)c1ccc(C(O)/C(=N\NC(=O)c2ccncc2)c2nc3ccc([N+](=O)[O-])cc3[nH]c2=O)cc1 (configuration not stated) | > 100 µM | – | – | – | > 100 µM | > 100 µM | – | > 100 µM | > 100 µM | > 100 µM | – | – | – | – | – | – | – | – | – | – |
| Oc1[nH]c2ccccc2c1/C=c1/ccc2c(c1)N=C(c1cc(F)cc(F)c1)N=2 | 22 µM | 22.2 µM | 17.5 µM | 31.9 µM | 13.6 µM | 28.3 µM | 19.5 µM | 36.4 µM | 28 µM | – | 10 µM | 10.2 µM | 2.63 µM | – | 5.08 µM | 2.7 µM | 3.63 µM | 16.8 µM | 9.62 µM | 10.1 µM |
| O=[P+](O)c1cccnc1 | > 100 µM | – | > 100 µM | – | > 100 µM | > 100 µM | – | > 100 µM | > 100 µM | > 100 µM | – | – | – | – | – | – | – | – | – | – |
